Like-named read-outs stand apart in the source and are kept apart here.
Target: T1, full-length SARM1 (FL-SARM1) (Homo sapiens, UniProt Q6SZW1)
T1 sequence (Q6SZW1 28-724): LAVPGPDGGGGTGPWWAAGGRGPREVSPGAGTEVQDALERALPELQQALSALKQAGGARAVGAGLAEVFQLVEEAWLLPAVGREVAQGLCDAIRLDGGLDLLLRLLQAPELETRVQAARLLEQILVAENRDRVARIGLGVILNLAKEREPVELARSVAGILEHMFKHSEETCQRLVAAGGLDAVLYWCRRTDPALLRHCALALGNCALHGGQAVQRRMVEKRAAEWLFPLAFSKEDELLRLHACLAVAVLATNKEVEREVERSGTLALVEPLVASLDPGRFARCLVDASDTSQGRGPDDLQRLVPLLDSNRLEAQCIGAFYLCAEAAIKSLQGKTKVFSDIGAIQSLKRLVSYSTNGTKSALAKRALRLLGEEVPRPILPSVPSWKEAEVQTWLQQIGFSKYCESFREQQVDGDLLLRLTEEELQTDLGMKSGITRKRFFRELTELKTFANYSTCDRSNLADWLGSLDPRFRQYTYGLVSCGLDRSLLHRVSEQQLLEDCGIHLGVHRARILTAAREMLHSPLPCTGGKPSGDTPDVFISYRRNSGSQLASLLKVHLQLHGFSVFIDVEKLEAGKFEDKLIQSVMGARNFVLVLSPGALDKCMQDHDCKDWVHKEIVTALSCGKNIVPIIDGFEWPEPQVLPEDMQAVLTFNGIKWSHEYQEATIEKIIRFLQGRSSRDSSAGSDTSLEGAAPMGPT
Experiment: FL-SARM1 cellular lysate assay (NAD/NADH-Glo detection of remaining NAD+, NMN-activated)

[1] = Activity (IC50 class), 11 point curve
[2] = Activity (μM) (IC50), 11 point curve
[3] = read-out: Activity (IC50 class), 11 point curve

| Structure (SMILES) | IC50 [1] | IC50 [2] | IC50 [3] |
| --- | --- | --- | --- |
| Cc1ccc(NC(=O)C(Cc2ncccn2)C2CCC2)cc1-c1ncc(F)cn1 (racemic) [Example 302, 2-cyclobutyl-N-(3-(5-fluoropyrimidin-2-yl)-4-methylphenyl)-3-(pyrimidin-2-yl)propanamide] | 1 to 10 µM | 3 µM | – |
| COCC1COc2ccccc2CN1C(=O)Nc1ccc(C)c(-c2ncc(F)cn2)c1 (racemic) [Example 309, N-(3-(5-fluoropyrimidin-2-yl)-4-methylphenyl)-3-(methoxymethyl)-2,3-dihydrobenzo[f][1,4] oxazepine-4(5H)-carboxamide] | 1 to 10 µM | 1.1 µM | – |
| CC1CCCCCN1C(=O)Nc1ccc(C(F)(F)F)c(-c2ncc(F)cn2)c1 (racemic) [Example 312, N-(3-(5-fluoropyrimidin-2-yl)-4-(trifluoromethyl)phenyl)-2-methylazepane-1-carboxamide] | 1 to 10 µM | 1.4 µM | – |
| Cc1ccc(NC(=O)C2CCC3(CC3)CN2c2ccccn2)cc1-c1ncc(F)cn1 (racemic) [Example 314] | 1 to 10 µM | 1.2 µM | – |
| Cc1ccc(NC(=O)[C@H]2CC[C@@H](C)CN2c2ncccn2)cc1-c1ncccn1 (racemic) [Example 327] | – | 0.5 µM | 0.0001 to 1 µM |
| Cc1ccc(NC(=O)N2CC3CC(C)C2C3)cc1-c1ccccn1 (single isomer, unassigned) [Example 12, 6-methyl-N-(4-methyl-3-(pyridin-2-yl)phenyl)-2-azabicyclo[2.2.1]heptane-2-carboxamide] | 1 to 10 µM | 2 µM | – |
| Cc1ccc(NC(=O)N2C3C[C@@H]2CC[C@@H]3C)cc1-c1ccccn1 (single isomer, unassigned) [Example 47, cis-2-methyl-N-(4-methyl-3-(pyridin-2-yl)phenyl)-6-azabicyclo[3.1.1]heptane-6-carboxamide] | – | 0.06 µM | 0.0001 to 1 µM |
| Cc1ccc(NC(=O)N2C3C[C@@H]2CC[C@H]3C)cc1-c1ccccn1 (single isomer, unassigned) [Example 48, trans-2-methyl-N-(4-methyl-3-(pyridin-2-yl)phenyl)-6-azabicyclo[3.1.1]heptane-6-carboxamide] | – | 0.1 µM | 0.0001 to 1 µM |
| Cc1ccc(NC(=O)N2C3C[C@@H]2CC[C@H]3C)cc1-c1ccccn1 (single isomer, unassigned) [Example 49, trans-2-methyl-N-(4-methyl-3-(pyridin-2-yl)phenyl)-6-azabicyclo[3.1.1]heptane-6-carboxamide] | – | 0.2 µM | 0.0001 to 1 µM |
| Cc1ccc(NC(=O)N2C3CC2CC(C(F)(F)F)C3)cc1-c1ccccn1 (single isomer, unassigned) [Example 86, N-(4-methyl-3-pyridin-2-ylphenyl)-3-(trifluoromethyl)-6-azabicyclo[3.1.1]heptane-6-carboxamide] | – | 0.01 µM | 0.0001 to 1 µM |
| Cc1ccc(NC(=O)[C@@H]2[C@@H]3CC[C@H]2N(CC(F)(F)F)C3)cc1-c1ccccn1 (single isomer, unassigned) [Example 104, trans-N-(4-methyl-3-(pyridin-2-yl)phenyl)-2-(2,2,2-trifluoroethyl)-2-azabicyclo[2.2.1]heptane-7-carboxamide] | 1 to 10 µM | 2.6 µM | – |
| Cc1ccc(NC(=O)[C@@H]2[C@@H]3CC[C@H]2N(CC(F)(F)F)C3)cc1-c1ccccn1 (single isomer, unassigned) [Example 105, trans-N-(4-methyl-3-(pyridin-2-yl)phenyl)-2-(2,2,2-trifluoroethyl)-2-azabicyclo[2.2.1]heptane-7-carboxamide] | > 10 µM | 17 µM | – |
| CC[C@H]1C[C@@H]1C(=O)Nc1ccc(C)c(-c2ccccn2)c1 (single isomer, unassigned) [Example 107, trans-2-ethyl-N-(4-methyl-3-pyridin-2-ylphenyl)cyclopropane-1-carboxamide] | > 10 µM | 18 µM | – |
| CC[C@H]1C[C@H]1C(=O)Nc1ccc(C)c(-c2ccccn2)c1 (single isomer, unassigned) [Example 109, cis-2-ethyl-N-(4-methyl-3-pyridin-2-ylphenyl)cyclopropane-1-carboxamide] | – | 0.3 µM | 0.0001 to 1 µM |
| CC[C@H]1C[C@H]1C(=O)Nc1ccc(C)c(-c2ccccn2)c1 (single isomer, unassigned) [Example 110, cis-2-ethyl-N-(4-methyl-3-pyridin-2-ylphenyl)cyclopropane-1-carboxamide] | 1 to 10 µM | 6 µM | – |
| Cc1ccc(NC(=O)[C@H]2C[C@H](C3CC3)C2)cc1-c1ccccn1 (single isomer, unassigned) [Example 121, trans-3-cyclopropyl-N-(4-methyl-3-pyridin-2-ylphenyl)cyclobutane-1-carboxamide] | – | 0.9 µM | 0.0001 to 1 µM |
| Cc1ccc(NC(=O)[C@H]2C[C@@H](C3CC3)C2)cc1-c1ccccn1 (single isomer, unassigned) [Example 122, cis-3-cyclopropyl-N-(4-methyl-3-pyridin-2-ylphenyl)cyclobutane-1-carboxamide] | – | 0.3 µM | 0.0001 to 1 µM |
| Cc1ccc(NC(=O)C2CC3CC[C@H]2C3)cc1-c1ccccn1 (single isomer, unassigned) [Example 137, trans-N-(4-methyl-3-pyridin-2-ylphenyl)bicyclo[2.2.1]heptane-2-carboxamide] | – | 0.1 µM | 0.0001 to 1 µM |
| Cc1ccc(NC(=O)[C@@H]2C[C@H]3CC[C@@H]2C3)cc1-c1ccccn1 (single isomer, unassigned) [Example 138, cis-N-(4-methyl-3-pyridin-2-ylphenyl)bicyclo[2.2.1]heptane-2-carboxamide] | – | 0.7 µM | 0.0001 to 1 µM |
| Cc1ccc(NC(=O)C2CC3CC[C@H]2C3)cc1-c1ccccn1 (single isomer, unassigned) [Example 139, cis-N-(4-methyl-3-pyridin-2-ylphenyl)bicyclo[2.2.1]heptane-2-carboxamide] | – | 0.2 µM | 0.0001 to 1 µM |
| Cc1ccc(NC(=O)C2CC3CC[C@@H]2C3)cc1-c1ccccn1 (single isomer, unassigned) [Example 140] | – | 0.9 µM | 0.0001 to 1 µM |
| CCOC(C)[C@@]12CC(C[C@@H](C)C1)N2C(=O)Nc1ccc(C)c(-c2ncc(F)cn2)c1 (single isomer, unassigned) [Example 186] | – | 0.2 µM | 0.0001 to 1 µM |
| CCOC(C)[C@@]12CC(C[C@@H](C)C1)N2C(=O)Nc1ccc(C)c(-c2ncc(F)cn2)c1 (single isomer, unassigned) [Example 187, cis-1-(1-ethoxyethyl)-N-(3-(5-fluoropyrimidin-2-yl)-4-methylphenyl)-3-methyl-6-azabicyclo[3.1.1]heptane-6-carboxamide] | – | 0.2 µM | 0.0001 to 1 µM |
| CCOC(C)[C@@]12CC(C[C@@H](C)C1)N2C(=O)Nc1ccc(C)c(-c2ncc(F)cn2)c1 (single isomer, unassigned) [Example 188, cis-1-(1-ethoxyethyl)-N-(3-(5-fluoropyrimidin-2-yl)-4-methylphenyl)-3-methyl-6-azabicyclo[3.1.1]heptane-6-carboxamide] | – | 0.003 µM | 0.0001 to 1 µM |
| CCOC(C)[C@@]12CC(C[C@@H](C)C1)N2C(=O)Nc1ccc(C)c(-c2ncc(F)cn2)c1 (single isomer, unassigned) [Example 189, cis-1-(1-ethoxyethyl)-N-(3-(5-fluoropyrimidin-2-yl)-4-methylphenyl)-3-methyl-6-azabicyclo[3.1.1]heptane-6-carboxamide] | 1 to 10 µM | 1.9 µM | – |
| COC(C)[C@@]12CC(C[C@@H](C)C1)N2C(=O)Nc1ccc(C)c(-c2ncc(F)cn2)c1 (single isomer, unassigned) [Example 191, cis-N-(3-(5-fluoropyrimidin-2-yl)-4-methylphenyl)-1-(1-methoxyethyl)-3-methyl-6-azabicyclo[3.1.1]heptane-6-carboxamide] | – | 0.0009 µM | 0.0001 to 1 µM |
| COC(C)[C@@]12CC(C[C@@H](C)C1)N2C(=O)Nc1ccc(C)c(-c2ncc(F)cn2)c1 (single isomer, unassigned) [Example 192, cis-N-(3-(5-fluoropyrimidin-2-yl)-4-methylphenyl)-1-(−1-methoxyethyl)-3-methyl-6-azabicyclo[3.1.1]heptane-6-carboxamide] | 1 to 10 µM | 1 µM | – |
| Cc1ccc(NC(=O)N2C3CC(C)CC2(C(C)O)C3)cc1-c1ncc(F)cn1 (single isomer, unassigned) [Example 193, cis-N-(3-(5-fluoropyrimidin-2-yl)-4-methylphenyl)-1-(1-hydroxyethyl)-3-methyl-6-azabicyclo[3.1.1]heptane-6-carboxamide] | – | 0.1 µM | 0.0001 to 1 µM |
| Cc1ccc(NC(=O)N2C3CC(C)CC2(C(C)O)C3)cc1-c1ncc(F)cn1 (single isomer, unassigned) [Example 194, cis-N-(3-(5-fluoropyrimidin-2-yl)-4-methylphenyl)-1-(1-hydroxyethyl)-3-methyl-6-azabicyclo[3.1.1]heptane-6-carboxamide] | – | 0.01 µM | 0.0001 to 1 µM |
